These results are taken from publication PMC2569088, “Hydroxylated Metabolites of the Polybrominated Diphenyl Ether Mixture DE-71 Are Weak Estrogen Receptor-α Ligands” (Environmental Health Perspectives, 2008).

Read-outs that look alike come from different tables or passages of the source.

Data set [1] has as its system ERE-luciferase (ER-α-positive BG1Luc4E2 cells). The data set can be described thus: ERE-luciferase reporter assay in stably transfected BG1Luc4E2 ovarian cancer cells. Format: cell-based, human. The conditions noted are these: for EC50: determined using the chemical's own maximum effect set at 100%, luciferase 18 hr after addition; for Fold-induction at EC50: normalized to vehicle control (DMSO = 1). The text has this: MDA-MB-231 breast cancer cells ([Cailleau et al. 1978]) obtained from ATCC (American Type Culture Collection; Manassas, VA) and BG1Luc4E2 ovarian cancer cells, a gift from M. Denison (University of California, Davis, CA), were used in estrogen bioassays. BG1LucE2 cells are BG-1 ovarian cancer cells ([Geisinger et al. 1989]) stably transfected with an estrogen-responsive plasmid ([Rogers and Denison 2000]). Most cell culture media and supplements were purchased from Gibco/Invitrogen (Carlsbad, CA), except bovine growth serum (BGS; Hyclone, Logan, UT) and geneticin (G418; Sigma). Most charcoal-stripping reagents and endotoxin-free water were purchased from Sigma-Aldrich (St. Louis, MO) except Dulbecco’s phosphate-buffered saline (DPBS; Mediatech Inc., Herndon, VA). MDA-MB-231 cells were maintained in growth medium (GM): minimum essential media (MEM) supplemented with L-glutamine (2 mM), nonessential amino acids (0.1 mM), HEPES buffer (10 mM), […] insulin, and 5% vol/vol BGS]. BG1Luc4E2 cells were maintained in BG1-GM: alpha-MEM supplemented with HEPES buffer (10 mM), geneticin (0.4 g/L) and 10% vol/vol BGS. Basal medium (BM) for MDA-MB-231 cells consisted of a formulation similar to GM, except that phenol red–free MEM and 3% charcoal-stripped BGS were used. BM for BG1Luc4E2 cells (BG1-BM) consisted of phenol red–free Dulbecco’s modified Eagle media: Nutrient Mixture F12 (DMEM:F12; Gibco/Invitrogen) supplemented with HEPES buffer (10 mM) and 10% vol/vol charcoal-stripped BGS. BGS was stripped of estrogenic activity by methods described previously ([Biswas and Vonderhaar 1987]; [Lippman et al. 1976]).
(§1) We used two ERE-luciferase reporter gene systems: one transiently transfected and the other an established stably transfected cell line. For the transient system, ER-negative MDA-MB-231 breast cancer cells were plated in BM. Two days later cells were transfected using Tfx-20 (Promega, Madison, WI) with expression vectors for ER-α(HEG0; from P. Chambon, Université Louis Pasteur, Illkrich, France), the estrogen-responsive firefly luciferase reporter construct ERE2-pS2-luc ([Long et al. 2001]), and the control Renilla luciferase reporter construct pRL-TK (Promega). Cells were treated with test chemicals 1 hr after transfection, and assayed for luciferase activity after 18 hr. Results are expressed as the ratio of firefly luciferase to Renilla luciferase. For the stable reporter system, ER-positive BG1Luc4E2 ovarian cancer cells ([Rogers and Denison 2000]) were incubated in BG1-BM for 5 days before treatment; cells were then assayed for luciferase activity 18 hr after addition of the test compound.
All statistics were performed using GraphPad Prism, version 3.0a, for Macintosh (GraphPad Software, San Diego CA). For each analysis, we determined whether groups had unequal variances by Bartlett’s test. Group averages with equal variances were compared to each other either by one-way analysis of variance (ANOVA) with Tukey post-test or by unpaired t-test as appropriate. Group averages with unequal variances were compared to each other by t-test with Welch’s correction. […] All values are expressed as mean ± SD or SE as indicated. We considered groups statistically different if p < 0.05 by ANOVA with Tukey posttest or t-test (two-tailed). Dose–response studies were also subjected to regression analysis using a sigmoidal curve fitting model: […]

Data set [2] addresses T1, recombinant ER-α (Homo sapiens, UniProt P03372).
T1 construct: purchased Panvera/Invitrogen, Madison, WI
T1 sequence (P03372 1-595): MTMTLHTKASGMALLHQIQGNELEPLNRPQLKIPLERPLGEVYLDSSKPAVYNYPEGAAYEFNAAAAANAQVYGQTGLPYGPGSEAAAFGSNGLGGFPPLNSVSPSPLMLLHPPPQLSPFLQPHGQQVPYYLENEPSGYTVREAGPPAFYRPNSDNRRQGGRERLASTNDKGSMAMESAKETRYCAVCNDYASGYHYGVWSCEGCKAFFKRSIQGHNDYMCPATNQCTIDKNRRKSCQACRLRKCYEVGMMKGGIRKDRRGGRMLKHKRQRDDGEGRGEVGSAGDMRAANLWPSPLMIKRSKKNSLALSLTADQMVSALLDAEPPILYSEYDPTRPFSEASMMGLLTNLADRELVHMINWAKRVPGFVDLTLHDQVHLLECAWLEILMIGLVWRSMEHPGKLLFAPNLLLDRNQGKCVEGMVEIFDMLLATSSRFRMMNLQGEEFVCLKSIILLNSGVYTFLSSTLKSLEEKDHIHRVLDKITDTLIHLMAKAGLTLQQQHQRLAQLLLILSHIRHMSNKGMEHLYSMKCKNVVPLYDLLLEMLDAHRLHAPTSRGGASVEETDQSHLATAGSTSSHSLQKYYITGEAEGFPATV
The data set can be described thus: Recombinant ER-α binding assay (3H-E2 displacement).

The subject of data set [3] is BG1Luc4E2 cells. To be noted: 5–50 μM, alone or in combination with E2.
Data set [4] has as its system ERE-luciferase (BG1Luc4E2 cells). The data set can be described thus: ERE-luciferase induction in BG1Luc4E2 cells after cotreatment with 10^−11 M E2. Format: cell-based, human. To be noted: for Effect on E2-induced ERE-luciferase activity (cotreatment): compared with the maximal effect of E2 alone. The procedure: as §1
See “Material and Methods” for details. […] Error bars indicate SE.

In data set [5] the test system is ERE-luciferase (MDA-MB-231 cells transfected with ER-α or BG1Luc4E2 cells). The data set can be described thus: ERE-luciferase induction by microsomal metabolites (rat liver microsome incubation products). The conditions noted are these: female rat liver microsomes, complete NADPH generating system. The procedure:
as §1

Where [6] appears, read: 1 nM 3H-E2, 0.6 nM recombinant ER-α, 4°C overnight.

As to `Oc1cc(Br)c(Br)cc1Br` [2,4,5-TBP, 2,4,5-tribromophenol], in data set [1], the EC50 result is “No effect”. The “IC50 (concentration yielding 50% displacement of 3H-E2 from receptor)” value in data set [2] (setting [6]) is recorded as “No effect”.
As for `Oc1ccc(Br)cc1Br` [2,4-DBP, 2,4-dibromophenol], the EC50 entry in data set [1] was “No effect”. For the same molecule, the “IC50 (concentration yielding 50% displacement of 3H-E2 from receptor)” value in data set [2] (setting [6]) is listed as “No effect”.
As for `Oc1cc(Br)ccc1Oc1ccc(Br)cc1Br` [2′-OH-BDE-28, 2′-OH - 2,4, 4′ - tribromodiphenyl], the “Toxicity (protein content of culture wells at harvest)” value in data set [3] is recorded as “no toxicity”. Moreover, in data set [2], the IC50 came to 60 µM and the “Relative affinity (E2 IC50 ÷ test chemical IC50 × 100)” value (“Relative affinity” for short) worked out at 0.001%. For the same molecule, in data set [4], the “Concentration at which antagonism of E2 was observed” value came to 50 µM and the “Effect on E2-induced ERE-luciferase activity (cotreatment)” value (from here on “Effect … (cotreatment)”) is on record as “able to antagonize the effect of E2”.
For `Oc1c(Br)ccc(Oc2ccc(Br)cc2Br)c1Br` [3-OH-BDE-47, 3-OH-2, 2′, 4, 4′-tetrabromodiphenyl], in data set [2], the “Relative affinity” value is reported as 0.001%. The IC50 in data set [2] (setting [6]) was 52 µM. Moreover, the “Effect … (cotreatment)” value in data set [4] is recorded as “able to potentiate the ERE-luciferase induction of E2”.
In the case of `Oc1ccc(Oc2ccc(Br)cc2Br)c(Br)c1Br` [4-OH-BDE-42, 4-HO-2, 2′,3, 4′-tetra-bromodiphenyl], in data set [2], the IC50 turned out to be 14 µM and the “Relative affinity” value came to 0.005%. Also, in data set [4], the “Effect … (cotreatment)” value is “appeared to induce ERE-luciferase above the E2 maximum, but the effect was not statistically significant”.
Consider `Oc1ccc(Oc2ccc(Br)cc2Br)c(Br)c1` [4′-OH-BDE-17, 4-OH-2, 2′, 4-tribromodiphenyl], for which, in data set [1], the “Relative effect (test chemical-to-E2 ratio of luciferase induction at EC50)” value turned out to be 1.30 ratio, the “Relative estrogen potency (ratio of the E2 EC50 to EEP)” value is 3.4 × 10^−7 ratio, the “Relative estrogenic potency compared with DE-71” value was “approximately 10 fold” and the “Fold-induction at EC50” value turned out to be 4.3. The Emax in data set [1] (Homo sapiens, read-out: Estimated maximal effect higher than E2) was 30%. For the same molecule, the EC50 in data set [1] (Homo sapiens, read-out: EC50) turned out to be 4.7 µM. For the same molecule, in data set [2], the IC50 came out at 2.1 µM and the “Relative affinity” value is given as 0.03%. In addition, in data set [4], the “Effect … (cotreatment)” value is reported as “beyond the maximal effect of E2 alone”.
As for `Oc1cc(Br)c(Oc2ccc(Br)cc2Br)cc1Br` [4′-OH-BDE-49, 4′-OH-2, 2′,4, 5′-tetrabromodiphenyl], in data set [1], the “Relative effect (test chemical-to-E2 ratio of luciferase induction at EC50)” value stood at 0.36 ratio and the “Fold-induction at EC50” value amounted to 1.2. Also, the EC50 in data set [1] (Homo sapiens, read-out: EC50) was 13 µM. In data set [2], the IC50 is 2.3 µM and the “Relative affinity” value came to 0.03%. Besides, the “Effect … (cotreatment)” value in data set [4] is recorded as “beyond the maximal effect of E2 alone”.
`Oc1cc(Br)cc(Br)c1Oc1ccc(Br)cc1Br` [6-OH-BDE-47, 6-OH-2, 2′,4, 4′-tetra-bromodiphenyl]: in data set [1], the concentration giving a half-maximal response (EC50) entry is listed as “No effect”. The “Toxicity (protein content of culture wells at harvest)” value in data set [3] is given as “no toxicity”. In addition, in data set [2], the IC50 was 11 µM and the “Relative affinity” value came to 0.001%. Besides, in data set [4], the “Concentration at which antagonism of E2 was observed” value worked out at 5 µM and the “Effect … (cotreatment)” value is “able to antagonize the effect of E2”.
As to `C[C@]12CC[C@@H]3c4ccc(O)cc4CC[C@H]3[C@@H]1CC[C@@H]2O` [E2, 1, 3, 5(10)-estra-triene-3, 17β-diol, reference compound], the “Test concentrations inducing ERE-luciferase” value in data set [1] is listed as “above 10^−13 M”. In addition, the EC50 in data set [1] (Homo sapiens, read-out: EC50) is 1.2e-06 µM. In addition, the “Decrease of activity by microsomal incubation” value in data set [5] is on record as 78%.
